From US20240228535A1 (priority 2022, published 2024)

Each compound was assayed against SARS2 coronavirus 3CL protease (Severe acute respiratory syndrome coronavirus 2, UniProt P0DTD1) (assay: biochemical). Settings: 5 nM enzyme, 30 min pre-incubation with compound, 15 μM peptide substrate, 4 h at room temperature; read-out: FRET Potency (nM); IC50 values in the SARS2 3CLPro FRET assay.

Row | SMILES | IC50
1 | CNC(=O)C(=O)[C@H](C[C@@H]1C[C@@H](C)NC1=O)NC(=O)c1cc(Cl)ccc1NC(=O)c1cc(C(F)(F)F)ccn1 [Example 72, N-[4-chloro-2-[[(1S)-3-(methylamino)-1-[[(3S,5R)-5-methyl-2-oxo-pyrrolidin-3-yl]methyl]-2,3-dioxo-propyl]carbamoyl]phenyl]-4-(trifluoromethyl)pyridine-2-carboxamide] | 6.3 nM
2 | CNC(=O)C(=O)[C@H](C[C@@H]1C[C@@H](C)NC1=O)NC(=O)c1cc(Cl)ccc1NC(=O)C1CCC(F)(F)C1 (single isomer, unassigned) [Example 16] | 31.6 nM
3 | CNC(=O)C(=O)[C@H](C[C@@H]1C[C@@H](C)NC1=O)NC(=O)c1cc(Cl)cc(F)c1NC(=O)OC [Example 133, methyl N-[4-chloro-2-fluoro-6-[[(1S)-3-(methylamino)-1-[[(3S,5R)-5-methyl-2-oxo-pyrrolidin-3-yl]methyl]-2,3-dioxo-propyl]carbamoyl]phenyl] carbamate] | 9.9 nM
4 | CNC(=O)C(=O)[C@H](C[C@@H]1CCNC1=O)NC(=O)c1cc(Cl)ccc1NC(=O)OC1CC(F)(F)C1 [Example 173] | 6.7 nM
5 | CNC(=O)C(=O)[C@H](C[C@@H]1CCNC1=O)NC(=O)c1cc(F)c(F)cc1NC(=O)OC [Example 109, methyl N-[4,5-difluoro-2-[[(1S)-3-(methylamino)-2,3-dioxo-1-[[(3S)-2-oxopyrrolidin-3-yl]methyl]propyl]carbamoyl]phenyl]carbamate] | 6 nM
6 | C[C@@H]1C[C@@H](C[C@H](NC(=O)c2cc(Cl)ccc2NC(=O)C2CC23CC3)C(=O)C(=O)NC2CC2)C(=O)N1 (stereo partly drawn) [Example 82, N-[4-chloro-2-[[(1S)-3-(cyclopropylamino)-1-[[(3S,5R)-5-methyl-2-oxo-pyrrolidin-3-yl]methyl]-2,3-dioxo-propyl]carbamoyl]phenyl] spiro[2.2]pentane-2-carboxamide] | 10.8 nM
7 | O=C(Nc1ccc(Cl)cc1C(=O)N[C@@H](C[C@@H]1CCNC1=O)C(=O)C(=O)NC1CC1)OC1CC1 [Example 146, cyclopropyl N-[4-chloro-2-[[(1S)-3-(cyclopropylamino)-2,3-dioxo-1-[[(3S)-2-oxopyrrolidin-3-yl]methyl]propyl]carbamoyl]phenyl]carbamate] | 3.9 nM
8 | C[C@@H]1C[C@@H](C[C@H](NC(=O)c2cc(Cl)ccc2NC(=O)C2(C(F)(F)F)CC2)C(=O)C(=O)NC2CC2)C(=O)N1 [Example 1, 5-chloro-N—((S)-4-(cyclopropylamino)-1-((3S,5R)-5-methyl-2-oxopyrrolidin-3-yl)-3,4 dioxobutan-2-yl)-2-(1-(trifluoromethyl)cyclopropane-1-carboxamido)benzamide] | 7.5 nM
9 | CNC(=O)C(=O)[C@H](C[C@@H]1CCNC1=O)NC(=O)c1cc(Cl)ccc1NC(=O)C1CC1C(F)(F)F (some centres unmarked) [Example 175] | 2.8 nM
10 | C[C@@H]1C[C@@H](C[C@H](NC(=O)c2cc(Cl)ccc2NC(=O)N2CCOCC2)C(=O)C(=O)NC2CC2)C(=O)N1 [Example 194, N-[4-chloro-2-[[(1S)-3-(cyclopropylamino)-1-[[(3S,5R)-5-methyl-2-oxo-pyrrolidin-3-yl]methyl]-2,3-dioxo-propyl]carbamoyl]phenyl] morpholine-4-carboxamide] | 6.8 nM
11 | C[C@@H]1C[C@@H](C[C@H](NC(=O)c2cc(Cl)ccc2NC(=O)c2ccnc(C(F)F)c2)C(=O)C(=O)NC2CC2)C(=O)N1 [Example 92, N-[4-chloro-2-[[(1S)-3-(cyclopropylamino)-1-[[(3S,5R)-5-methyl-2-oxo-pyrrolidin-3-yl]methyl]-2,3-dioxo-propyl]carbamoyl]phenyl]-2-(difluoromethyl)pyridine-4-carboxamide] | 9 nM
12 | CCOC(=O)Nc1ccc(Cl)cc1C(=O)N[C@@H](C[C@@H]1CCNC1=O)C(=O)C(=O)NC1CC1 [Example 139] | 6.3 nM
13 | O=C(NC1CC1)C(=O)[C@H](C[C@@H]1CCNC1=O)NC(=O)c1cc(Cl)ccc1NC(=O)c1cncc(C(F)(F)F)c1 [Example 71, N-[4-chloro-2-[[(1S)-3-(cyclopropylamino)-2,3-dioxo-1-[[(3S)-2-oxopyrrolidin-3-yl]methyl]propyl]carbamoyl]phenyl]-5-(trifluoromethyl)pyridine-3-carboxamide] | 6.6 nM
14 | CNC(=O)C(=O)[C@H](C[C@@H]1C[C@@H](C)NC1=O)NC(=O)c1cc(Cl)c(Cl)cc1NC(=O)OC [Example 144, methyl N-[4,5-dichloro-2-[[(1S)-3-(methylamino)-1-[[(3S,5R)-5-methyl-2-oxo-pyrrolidin-3-yl]methyl]-2,3-dioxo-propyl]carbamoyl]phenyl] carbamate] | 5.3 nM
15 | CNC(=O)C(=O)[C@H](C[C@@H]1C[C@@H](C)NC1=O)NC(=O)c1cc(Cl)ccc1NC(=O)C1CCCC(F)(F)C1 (single isomer, unassigned) [Example 198] | 5.5 nM
16 | CC(C(=O)Nc1ccc(Cl)cc1C(=O)N[C@@H](C[C@@H]1C[C@@H](C)NC1=O)C(=O)C(=O)NC1CC1)c1cscn1 (stereo partly drawn) [Example 89, 5-chloro-N-[(1S)-3-(cyclopropylamino)-1-[[(3S,5R)-5-methyl-2-oxo-pyrrolidin-3-yl]methyl]-2,3-dioxo-propyl]-2-(2-thiazol-4-ylpropanoylamino)benzamide] | 10.1 nM
17 | CNC(=O)C(=O)[C@H](C[C@@H]1CCNC1=O)NC(=O)c1cc(Cl)ccc1NC(=O)C(C)c1cscn1 (stereo partly drawn) [Example 179, 5-chloro-N-[(1S)-3-(methylamino)-2,3-dioxo-1-[[(3S)-2-oxopyrrolidin-3-yl]methyl]propyl]-2-(2-thiazol-4-ylpropanoylamino)benzamide] | 2.5 nM
18 | C[C@@H]1C[C@@H](C[C@H](NC(=O)c2cc(Cl)cnc2NC(=O)C2CCC(F)(F)CC2)C(=O)C(=O)NC2CC2)C(=O)N1 [Example 39, 5-chloro-N-[(1S)-3-(cyclopropylamino)-1-[[(3S,5R)-5-methyl-2-oxo-pyrrolidin-3-yl]methyl]-2,3-dioxo-propyl]-2-[(4,4-difluorocyclohexanecarbonyl)amino]pyridine-3-carboxamide] | 10.3 nM
19 | CNC(=O)C(=O)[C@H](C[C@@H]1C[C@@H](C)NC1=O)NC(=O)c1cc(Cl)ccc1NC(=O)c1cccc(C(F)(F)F)n1 [Example 26, N-[4-chloro-2-[[(1S)-3-(methylamino)-1-[[(3S,5R)-5-methyl-2-oxo-pyrrolidin-3-yl]methyl]-2,3-dioxo-propyl]carbamoyl]phenyl]-6-(trifluoromethyl)pyridine-2-carboxamide] | 17.4 nM
20 | CNC(=O)C(=O)[C@H](C[C@@H]1CCNC1=O)NC(=O)c1cc(Cl)ccc1NC(=O)C1CC1C(F)(F)F (stereo partly drawn) [Example 176, 5-chloro-N-[(1S)-3-(methylamino)-2,3-dioxo-1-[[(3S)-2-oxopyrrolidin-3-yl]methyl]propyl]-2-[[2-(trifluoromethyl)cyclopropane-carbonyl]amino]benzamide] | 2.5 nM
21 | CNC(=O)C(=O)[C@H](C[C@@H]1C[C@@H](C)NC1=O)NC(=O)c1cc(Cl)c(Cl)cc1NC(=O)OC1CC1 [Example 170, cyclopropyl N-[4,5-dichloro-2-[[(1S)-3-(methylamino)-1-[[(3S,5R)-5-methyl-2-oxo-pyrrolidin-3-yl]methyl]-2,3-dioxo-propyl]carbamoyl]phenyl] carbamate] | 10.5 nM
22 | C[C@@H]1C[C@@H](C[C@H](NC(=O)c2cc(C#N)ccc2NC(=O)c2cccc(F)c2)C(=O)C(=O)NC2CC2)C(=O)N1 [Example 32, 5-cyano-N-[(1S)-3-(cyclopropylamino)-1-[[(3S,5R)-5-methyl-2-oxo-pyrrolidin-3-yl]methyl]-2,3-dioxo-propyl]-2-[(3-fluorobenzoyl)amino] benzamide] | 12.3 nM
23 | C[C@@H]1C[C@@H](C[C@H](NC(=O)c2cc(Cl)ccc2NC(=O)c2ccnc(C(F)(F)F)c2)C(=O)C(=O)NC2CC2)C(=O)N1 [Example 2, N-(4-chloro-2-(((S)-4-(cyclopropylamino)-1-((3S,5R)-5-methyl-2-oxopyrrolidin-3-yl)-3,4-dioxobutan-2-yl)carbamoyl)phenyl)-2-(trifluoromethyl)isonicotinamide] | 5.6 nM
24 | CNC(=O)C(=O)[C@H](C[C@@H]1CCNC1=O)NC(=O)c1cc(C(F)(F)F)ccc1NC(=O)C1(C(F)(F)F)CC1 [Example 95, N-[(1S)-3-(methylamino)-2,3-dioxo-1-[[(3S)-2-oxopyrrolidin-3-yl]methyl]propyl]-5-(trifluoromethyl)-2-[[1-(trifluoromethyl)cyclopropane-carbonyl]amino]benzamide] | 44.7 nM
25 | CNC(=O)C(=O)[C@H](C[C@@H]1C[C@@H](C)NC1=O)NC(=O)c1ccccc1NC(=O)OC [Example 103, methyl N-[2-[[(1S)-3-(methylamino)-1-[[(3S,5R)-5-methyl-2-oxo-pyrrolidin-3-yl]methyl]-2,3-dioxo-propyl]carbamoyl]phenyl] carbamate] | 86.2 nM
26 | C[C@@H]1C[C@@H](C[C@H](NC(=O)c2cc(F)ccc2NC(=O)c2ccnc(C(F)(F)F)c2)C(=O)C(=O)NC2CC2)C(=O)N1 [Example 77, N-[2-[[(1S)-3-(cyclopropylamino)-1-[[(3S,5R)-5-methyl-2-oxo-pyrrolidin-3-yl]methyl]-2,3-dioxo-propyl]carbamoyl]-4-fluoro-phenyl]-2-(trifluoromethyl)pyridine-4-carboxamide] | 5.3 nM
27 | CNC(=O)C(=O)[C@H](C[C@@H]1C[C@@H](C)NC1=O)NC(=O)c1cc(Cl)ccc1NC(=O)C1CC1(F)F (single isomer, unassigned) [Example 14] | 46.4 nM
28 | CNC(=O)C(=O)[C@H](C[C@@H]1C[C@@H](C)NC1=O)NC(=O)c1cc(Cl)cnc1NC(=O)c1ccc(F)cc1 [Example 57, 5-chloro-2-[(4-fluorobenzoyl)amino]-N-[(1S)-3-(methylamino)-1-[[(3S,5R)-5-methyl-2-oxo-pyrrolidin-3-yl]methyl]-2,3-dioxo-propyl]pyridine-3-carboxamide] | 8.1 nM
29 | CC(C)C(=O)Nc1ccc(Cl)cc1C(=O)N[C@@H](C[C@@H]1C[C@@H](C)NC1=O)C(=O)C(=O)NC1CC1 [Example 147, 5-chloro-N-[(1S)-3-(cyclopropylamino)-1-[[(3S,5R)-5-methyl-2-oxo-pyrrolidin-3-yl]methyl]-2,3-dioxo-propyl]-2-(2-methylpropanoylamino) benzamide] | 11.6 nM
